Assay results published in patent US20080182978A1, “ANTI-NGF ANTIBODIES AND METHODS USING SAME” (RINAT NEUROSCIENCE CORP, priority 2002, published 2008).

How the values were obtained:
[1] = CFA arthritis rats, body weight (Example 8); type: in vivo, rat; conditions: for body weight: arthritic rats
Description: Five groups of 10 animals (5-weeks old male Lewis rats-LEWIS Lew/Ico, from Charles River Laboratories—Belgium) each were included in this study: Group 1: non arthritic rats/saline (vehicle), i.v. bolus, n=10; Group 2: arthritic rats/saline (vehicle), i.v. bolus, n=10; Group 3: arthritic rats/Indomethacin 3 mg/kg, p.o daily over 10 days, n=10; Group 4: arthritic rats/E3, 1 mg/kg, i.v. bolus, n=10; Group 5: arthritic rats/911, 10 mg/kg, i.v. bolus, n=10. The doses were expressed in terms of free active substance (mg/kg). E3 and 911 were extemporaneously prepared in saline from the stock solution to the desired concentration. E3 1 mg/kg: 3.41 mL of the stock solution (0.88 mg/ml) q.s.p. 15 mL of saline. 911 10 mg/kg: 12 mL of the stock solution (2.5 mg/ml) q.s.p. 15 mL of saline. All diluted solutions (before i.v. injection) were sterilized using a sterile filter unit of 0.20.μm. pH and osmolarity values of diluted solutions were measured before each i.v. injection. Before the first i.v., osmolarity (mosm/L) for saline, E3, and 911 were 278, 269, and 308 respectively; pH for saline, E3, and 911 were 5.93, 6.76, 6.71 respectively. Before the second i.v., osmolarity (mosm/L) for saline, E3, and 911 were 280, 270, and 309 respectively; pH for saline, E3, and 911 were 5.86, 6.72, and 6.59 respectively.
E3 or 911 or saline were administered by i.v. bolus injection on Day 14 and Day 19 after arthritis induction in a coded and random order with a volume of 5 mL/kg. The non arthritic group was given by i.v. bolus injection of saline on Day 14 and Day 19 with a volume of 5 mL/kg. Indomethacin was extemporaneously prepared in 1% methylcellulose. Indomethacin was administered by oral route (p.o.) once daily over 10 days from Day 14 to Day 23 after arthritis induction in a coded and random order with a volume of 10 mL/kg.
The animals were weighed once daily from Day 0 to Day 24 (except during the week-end days before the treatment: D 1, D 2, D 8, D 9, D 10). All measurements were performed between 9:00 and 12:00 am except at D 14 (7:30-9:00 am) and D 24 (7:30-8:00 am).
(§1) All results were reported as Mean ±S.E.M. of 10 rats in each group at each time point. Paw volume was expressed in ml calculated from the mean value of the right and left paw volume. Arthritis index was calculated from the sum of the score obtained for each of the 4 paws. The nociceptive response was evaluated by the intensity of the level of vocalization recorded for each animal (mean of 4 values: 2 times/paw) in mV. The percentage inhibition of the nociceptive response was calculated from the mean value of the vehicle-treated arthritic group [(mean value of vehicle-treated arthritic group−mean value of treated arthritic group/mean value of vehicle-treated arthritic group)*100]. Body weight was expressed in grams. Hindpaws (left and right) weight was expressed in grams. Cytokine levels (IL-6, IL-1β, TNF-α and TGF-β1) of each hind paw was expressed in pg/ml. Circulating levels of TGF-β1 was expressed in pg/ml. Radiological index for each parameter (demineralization, erosions, periostal reaction, soft tissue damage, space joint, osteogenesis deformity) and total radiological index (total score) were calculated from the sum of the scores obtained for each parameter. The inter-group significances of the deviations between the values of vehicle-treated group (arthritic rats) and vehicle-treated group (non arthritic rats) were assessed by the Student t test or Mann-Whitney Rank Sum Test when equal variance or normality test failed. The inter-group significances of the deviations between the values of vehicle-treated group (arthritic rats) and E3- and 911- and Indomethacin-treated groups were assessed by the 1-way analysis of variance ANOVA followed by the non-paired Dunnett t test. A probability of P<0.05 was considered as significant. All statistical analysis was performed by the Sigmastat™ software.

[2] = tested on: IL-6, IL-1β, TNF-α and TGF-β1; assay: CFA arthritis rats, paw cytokine levels (ELISA); type: in vivo, rat; conditions: D24; for left paw IL-1β level / left paw IL-6 level / left paw TGF-β1 level / left paw TNF-α level / right paw IL-1β level / right paw IL-6 level / right paw TGF-β1 level / right paw TNF-α level: arthritic rats, E3 1 mg/kg or 911 10 mg/kg i.v. D14+D19, indomethacin 3 mg/kg p.o.
Description: On Day 24 (5 days after the last i.v. bolus injection or 24 hours after the last p.o. administration) (after X-rays radiographies), each animal hindpaw (arthritic and non arthritic rats) was weighed and was collected in a labelled polyethylene vial. Tissue samples were frozen in liquid nitrogen and stored at −80° C.
Preparation of Joint Homogenates: Frozen Hind Paws were Pulverized Using a Bio-Pulverizer. The powdered hind paws were then placed into a 50 ml conical centrifuge tube containing 3 ml PBS supplemented with 50 μl of anti-protease cocktail and homogenized on ice using Ultra-Turrax homogenizer (50% of the maximal speed). Homogenates were then centrifuged at 2000×g for 15 minutes at 4° C. and supernatants were filtered through 0.2 μm Sartorius filters, aliquoted and stored at −80° C. until use.
Cytokine levels measurement: Cytokine levels of TNF-α (Rat TNF-a ELISA kit, ref. RTA00, Batch 213718, R&D Systems, France), IL-1 Rat […] ELISA kit, ref. RLB00, Batch 212435, R&D Systems, France), IL-6 Rat IL-6 ELISA kit, ref. R6000, Batch 211773, 214008 and 214362, R&D Systems, France), and TGF-β1 Human TGF-β1 ELISA kit, ref. DB100, Batch 212258 and 213610, R&D Systems, France) were determined in duplicate, according to the manufacturer's procedure. Aliquots of hind paw homogenates were stored at −80° C.
as §1

[3] = E3 1 mg/kg or 911 10 mg/kg i.v. D14+D19, indomethacin 3 mg/kg/day p.o., D24
[4] = before treatment (dosing starts D14), D3
[5] = before treatment (dosing starts D14), D4
[6] = before treatment (dosing starts D14), D5
[7] = before treatment (dosing starts D14), D6
[8] = before treatment (dosing starts D14), D7
[9] = before treatment (dosing starts D14), D11
[10] = before treatment (dosing starts D14), D12
[11] = before treatment (dosing starts D14), D13
[12] = group later given E3 1 mg/kg or 911 10 mg/kg i.v. D14+D19 or indomethacin 3 mg/kg/day p.o., D0
[13] = D14 (selection day, first dosing)
[14] = E3 1 mg/kg or 911 10 mg/kg i.v. D14+D19, indomethacin 3 mg/kg/day p.o., D15
[15] = E3 1 mg/kg or 911 10 mg/kg i.v. D14+D19, indomethacin 3 mg/kg/day p.o., D16
[16] = E3 1 mg/kg or 911 10 mg/kg i.v. D14+D19, indomethacin 3 mg/kg/day p.o., D17
[17] = E3 1 mg/kg or 911 10 mg/kg i.v. D14+D19, indomethacin 3 mg/kg/day p.o., D18
[18] = E3 1 mg/kg or 911 10 mg/kg i.v. D14+D19, indomethacin 3 mg/kg/day p.o., D19
[19] = E3 1 mg/kg or 911 10 mg/kg i.v. D14+D19, indomethacin 3 mg/kg/day p.o., D20
[20] = E3 1 mg/kg or 911 10 mg/kg i.v. D14+D19, indomethacin 3 mg/kg/day p.o., D21
[21] = E3 1 mg/kg or 911 10 mg/kg i.v. D14+D19, indomethacin 3 mg/kg/day p.o., D22
[22] = E3 1 mg/kg or 911 10 mg/kg i.v. D14+D19, indomethacin 3 mg/kg/day p.o., D23

## COc1ccc2c(c1)c(CC(=O)O)c(C)n2C(=O)c1ccc(Cl)cc1 [Indomethacin, reference compound]
[1]; [3]
  maximum body weight increase compared to vehicle-treated arthritic group: about 43 g
  body weight: 261±5 grams
[1]; [4]
  body weight: 217 ± 4 grams
[1]; [5]
  body weight: 225 ± 4 grams
[1]; [6]
  body weight: 235 ± 4 grams
[1]; [7]
  body weight: 239 ± 4 grams
[1]; [8]
  body weight: 246 ± 4 grams
[1]; [9]
  body weight: 242 ± 7 grams
[1]; [10]
  body weight: 235 ± 7 grams
[1]; [11]
  body weight: 227 ± 6 grams
[1]; [12]
  body weight: 202 ± 3 grams
[1]; [13]
  body weight: 224 ± 5 grams
[1]; [14]
  body weight: 230 ± 4 grams
[1]; [15]
  body weight: 230 ± 5 grams
[1]; [16]
  body weight: 231 ± 4 grams
[1]; [17]
  body weight: 234 ± 4 grams
[1]; [18]
  body weight: 236 ± 4 grams
[1]; [19]
  body weight: 241 ± 4 grams
[1]; [20]
  body weight: 246 ± 4 grams
[1]; [21]
  body weight: 248 ± 5 grams
[1]; [22]
  body weight: 253 ± 5 grams
[2]
  left paw IL-1β level: 4029.1 ± 449.9 pg/mL
  left paw IL-6 level: 249.7 ± 60.4 pg/mL
  left paw TGF-β1 level: 7708.2 ± 293.9 pg/mL
  left paw TNF-α level: 29.9 ± 3.6 pg/mL
  right paw IL-1β level: 3884.4 ± 534.4 pg/mL
  right paw IL-6 level: 295.9 ± 47.8 pg/mL
  right paw TGF-β1 level: 7057.4 ± 335.6 pg/mL
  right paw TNF-α level: 30.6 ± 5.7 pg/mL
[2]; indomethacin 3 mg/kg/day p.o. 10 days
  decrease of TGF-β1 level in right paw compared to vehicle-treated arthritic group: about 1.3 times

B1: E3: humanized, affinity matured anti-NGF antagonist antibody; variable regions SEQ ID NO:1 and 2; human IgG2a (A330P331 to S330S331), kappa (antibody, V domains shown)
VH: QVQLQESGPGLVKPSETLSLTCTVSGFSLIGYDLNWIRQPPGKGLEWIGIIWGDGTTDYNSAVKSRVTISKDTSKNQFSLKLSSVTAADTAVYYCARGGYWYATSYYFDYWGQGTLVTVS
VL: DIQMTQSPSSLSASVGDRVTITCRASQSISNNLNWYQQKPGKAPKLLIYYTSRFHSGVPSRFSGSGSGTDFTFTISSLQPEDIATYYCQQEHTLPYTFGQGTKLEIKRT
modifications: human IgG2a constant (A330S/P331S) and kappa constant missing
[1]; [3]
  maximum body weight increase compared to vehicle-treated arthritic group: about 46 g
  body weight: 264±5 grams
[1]; [4]
  body weight: 222 ± 3 grams
[1]; [5]
  body weight: 230 ± 3 grams
[1]; [6]
  body weight: 241 ± 3 grams
[1]; [7]
  body weight: 243 ± 3 grams
[1]; [8]
  body weight: 249 ± 3 grams
[1]; [9]
  body weight: 242 ± 6 grams
[1]; [10]
  body weight: 237 ± 6 grams
[1]; [11]
  body weight: 230 ± 5 grams
[1]; [12]
  body weight: 206 ± 4 grams
[1]; [13]
  body weight: 225 ± 5 grams
[1]; [14]
  body weight: 223 ± 5 grams
[1]; [15]
  body weight: 224 ± 5 grams
[1]; [16]
  body weight: 227 ± 4 grams
[1]; [17]
  body weight: 232 ± 4 grams
[1]; [18]
  body weight: 235 ± 4 grams
[1]; [19]
  body weight: 238 ± 4 grams
[1]; [20]
  body weight: 245 ± 4 grams
[1]; [21]
  body weight: 250 ± 5 grams
[1]; [22]
  body weight: 257 ± 5 grams
[2]; 1 mg/kg i.v. on D14 and D19
  effect on IL-6, IL-1β, TNF-α or TGF-β1 levels in both paws vs vehicle-treated arthritic group: did not affect
[2]
  left paw IL-1β level: 5060.0 ± 473.5 pg/mL
  left paw IL-6 level: 234.4 ± 35.2 pg/mL
  left paw TGF-β1 level: 9796.7 ± 491.2 pg/mL
  left paw TNF-α level: 23.6 ± 2.5 pg/mL
  right paw IL-1β level: 4853.5 ± 605.0 pg/mL
  right paw IL-6 level: 214.6 ± 47.2 pg/mL
  right paw TGF-β1 level: 9362.7 ± 423.4 pg/mL
  right paw TNF-α level: 21.5 ± 2.5 pg/mL
